Here are results for three compounds from patent publication US10966955B2, “Ocular drug delivery system and uses thereof” (Chang Gung University, priority 2020, dated 2021).

The nature of data set [1]: In vitro drug release of the ocular drug delivery system in hyaluronidase solution (HPLC). It counts as physicochemical. To be noted: for release rate compared with the other drugs (in words): hyaluronidase solution, EGCG in sPLA2 solution. How it is done: A suitable amount of the ocular drug delivery system obtained in Example 1 was immersed in 1 mL of a sPLA2 solution (containing 0.1 mg/mL sPLA2), followed by incubation at 37° C. with reciprocal shaking (100 rpm) in a thermostatically controlled water bath for a designated time period ranging from 0 minutes to 168 hours. Sample solutions were taken at each time point of 0, 1, 2, 3, 4, 5, 12, 24, 48, 72, 96, 120, 144, and 168 hours.
The sample solutions thus obtained were centrifuged at 1000 rpm for 3 minutes. The resultant supernatants were collected and then subjected to high performance liquid chromatography (HPLC) analysis using a L-2400 UV detector, a L-2130 pump (Hitachi, Tokyo, Japan), and a Mightysil RP-18 column (Kanto Chemical, Tokyo, Japan).
The HPLC operating conditions applied were described as follows. The mobile phase was 90% water with 0.1% trifluroacetic acid and 10% acetonitrile, and the flow rate of the mobile phase was 1 mL/min. The injection volume was 10 μL. The elution peak was detected by measuring absorbance at 280 nm (for EGCG), 305 nm (for β-1,3 glucan), and 274 nm (for SB-431542), respectively.
The release profile of β-1,3-glucan from the first HA-SH nanoparticles and the release profile of SB-431542 from the second HA-SH nanoparticles were evaluated substantially according to the procedures as described above, except that the ocular drug delivery system was immersed in 1 mL of a hyaluronidase solution (containing 100 U/mL hyaluronidase).

A short description of data set [2]: In vitro drug release of the ocular drug delivery system in sPLA2 solution (HPLC). Type of data set: physicochemical. Here is the method:
A suitable amount of the ocular drug delivery system obtained in Example 1 was immersed in 1 mL of a sPLA2 solution (containing 0.1 mg/mL sPLA2), followed by incubation at 37° C. with reciprocal shaking (100 rpm) in a thermostatically controlled water bath for a designated time period ranging from 0 minutes to 168 hours. Sample solutions were taken at each time point of 0, 1, 2, 3, 4, 5, 12, 24, 48, 72, 96, 120, 144, and 168 hours. The sample solutions thus obtained were centrifuged at 1000 rpm for 3 minutes. The resultant supernatants were collected and then subjected to high performance liquid chromatography (HPLC) analysis using a L-2400 UV detector, a L-2130 pump (Hitachi, Tokyo, Japan), and a Mightysil RP-18 column (Kanto Chemical, Tokyo, Japan). The HPLC operating conditions applied were described as follows. The mobile phase was 90% water with 0.1% trifluroacetic acid and 10% acetonitrile, and the flow rate of the mobile phase was 1 mL/min. The injection volume was 10 μL. The elution peak was detected by measuring absorbance at 280 nm (for EGCG), 305 nm (for β-1,3 glucan), and 274 nm (for SB-431542), respectively. The amount of EGCG released from the sPLA2 hydrolysable liposomes was calculated with reference to a standard calibration curve of EGCG. Results from five independent measurements were averaged and further used to calculate the cumulative released amount of EGCG.

The test system of data set [3] is SIRC cells. Put plainly: Cell migration assay of SIRC cells. It counts as cell-based, rabbit. To be noted: cell-free gap about 180 μm, 18 hours. How it is done: (b) Rabbit corneal epithelial (SIRC) cells (BCRC NO: 60093) were obtained from the Bioresources Collection and Research Center (BCRC) of Food Industry Research and Development Institute (FIRDI) (Hsinchu, Taiwan). The SIRC cells were grown in a regular growth medium containing minimum essential medium (MEM) and 10% fetal bovine serum (FBS), and were cultivated in a humidified atmosphere (5% CO2, 37° C.).
A cell culture insert was placed into each well of a 12-well culture plate. The SIRC cells were seeded into the culture tanks on both sides of the culture insert at a cell number of 1×10^4 cells and then incubated overnight to allow cell attachment. Thereafter, the culture insert was removed to create a cell-free gap with a width of about 180 μm, and then the liquid in each well was removed. Each well was washed three times with phosphate-buffered saline (PBS), followed by addition of 200 μL of Eagle's minimum essential medium (MEM). […]
At 0 and 18 hours after incubation, the cell migration profile of the SIRC cells in each group was photographed using an inverted phase contrast microscope (Nikon, Melville, N.Y., USA), and the width of the cell-free gap was measured by ImageJ software. The cell migration rate (%) was calculated using the following Equation (I): Cell migration rate (%)=[A−B)/A]×100 (I) […]

`NC(=O)c1ccc(-c2nc(-c3ccc4c(c3)OCO4)c(-c3ccccn3)[nH]2)cc1` [SB-431542]: the “cumulative release rate of SB-431542 from the second HA-SH nanoparticles” value in data set [1] (at the 160th hour after initiation of the release test, 100 U/mL hyaluronidase solution, 37° C.) was found to be 80%. Further, the “release rate compared with the other drugs (in words)” value in data set [1] is “slower than those of EGCG and β-1,3 glucan”.
`O=C(O[C@@H]1Cc2c(O)cc(O)cc2O[C@@H]1c1cc(O)c(O)c(O)c1)c1cc(O)c(O)c(O)c1` [EGCG, epigallocatechin gallate]: the “release of EGCG (in words)” value in data set [2] (within 8 hours following initiation of the release test, sPLA2 solution) is listed as “released in a large amount”. Also, in data set [2] (within 20 hours, 0.1 mg/mL sPLA2 solution, 37° C.), the “cumulative release rate of EGCG from the sPLA2 hydrolysable liposomes” value was 90%.
For the compound β-1,3-glucan [β-1,3 glucan], in data set [3], the “Cell migration rate (%)” value was 73%. In data set [1], the “release rate compared with the other drugs (in words)” value was “slower than that of EGCG”. Besides, in data set [1] (within 70 hours after initiation of the release test, 100 U/mL hyaluronidase solution, 37° C.), the “cumulative release rate of β-1,3 glucan from the first HA-SH nanoparticles” value was found to be 90%.
